Where two headings read alike, the source gives them in different places.
Legend:
[1] = Pharmacokinetics of paeoniflorin in pseudo-germ-free (PGF) rats; format: in vivo; conditions: SD, rat, oral paeoniflorin 20 mg/kg, plasma analyte = labelled substance; for AUC(0-t) / Cmax: plasma, po, 20 mg/kg
Description: Chromatography separation was performed using an XSS T3 column (3.5 μm, 2.1 mm × 100 mm, Waters, Milford, MA, United States) with the column temperature maintained at 40°C at a flow rate of 0.4 mL/min. […] The gradient was as follows: 25% eluent B for 2 min; 25–85% B from 2 to 4 min; 85–25% B from 4 to 5 min and held at 25% from 5 to 7 min. The autosampler temperature was set to 4°C. Mass spectrometry was carried out using multiple reaction monitoring mode (MRM). […] The nebulizing gas flow rate was 2.8 L/min, the drying gas flow rate was 10 L/min, and the heating gas flow rate was 10 L/min. […] The remaining fourteen SD rats were orally administered saline equivalently. Two days after administration, pharmacokinetic experiments were performed. […] Plasma samples were immediately stored at 4°C until analysis. Statistical analyses were conducted using two-way ANOVA and Student’s t-test with GraphPad Prism Version 5 (GraphPad Software, La Jolla, CA, United States). The data are expressed as the means ± standard deviation. […] DAS 3.0 was used to calculate the plasma pharmacokinetic parameters.

[2] = Excretion of paeoniflorin in rats (urine, feces, bile); format: in vivo, rat; conditions: for Excretion rate of paeoniflorin (%), Urine (%), cumulative / Excretion rate of paeoniflorin (%), Feces (%), cumulative: total excretion, oral 20 mg/kg
Description: Then, urine samples and feces samples were collected at 0, 6, 12, 24, 48, 72, and 96 h.

[3] = system: gut microbiota; assay: Analysis of microbial diversity by 16S rRNA gene sequencing; format: in vivo, rat; conditions: depression model rats, oral 20 mg/kg, 2 weeks of treatment
Description: Rat feces of the chronic unpredictable depression model group were collected after 2 weeks of treatment. Three groups, including the normal control group, the model control group, the paeoniflorin treatment group (oral, 20 mg/kg) were selected. Barcoded pyro sequencing analysis was performed on the V3 and V4 regions by 16S rRNA gene sequencing.

[4] = system: depressed rats; assay: Chronic unpredictable stress depression model, sucrose preference test; format: in vivo, rat; conditions: after 2 weeks of drug treatment, compared with model group, n = 8
Description: Forty rats were randomly divided into the following groups (n = 8): the normal control group, the model control group, the fluoxetine group (10 mg/kg), the paeoniflorin low-dose group (10 mg/kg), and the paeoniflorin high-dose group (20 mg/kg). Except for the blank control group, the groups were randomly exposed to two stressors, including behavioral constraints, ice water swimming, electric shock, cold stimulation, clip tail, wet bedding, light/dark reversed, shaking, foods and water deprivation, continuously for 8 weeks to establish a chronic unpredictable stress model. The sucrose preference test was performed at 0 and 14 days after administration.

[5] = system: rat intestinal microbial culture; assay: Metabolism of paeoniflorin by intestinal bacteria in vitro; format: in vitro ADME; conditions: 24-h incubation
Description: The colon contents of six rats were pooled, and 5 g of the sample was transferred to a ziplock bag and then mixed thoroughly with anaerobic medium (100 mL). After mixing completely, the cultures were stored at 37°C and preincubated for 1 h. Then, 10 μL of paeoniflorin (100 mg/mL) was added to fresh rat intestinal microbial culture (990 μL) under anaerobic conditions of N2, with a final concentration of 1 mg/mL of paeoniflorin in the culture system ([Hattori et al., 1988]). The inactivated bacteria solution was used as a negative control. Cultures were incubated at 37°C for 0, 2, 6, 12, and 24 h, respectively. After terminated the reaction with 3 volumes of acetonitrile, samples were vortexed for 30 s and then centrifuged at 16,162 g for 5 min. A total of 100 μL of the supernatant were transferred to a centrifuge tube, centrifuged at 16,162 g for 5 min and filtered through a 0.45 μm microporous membrane. Finally, 5 μL of the filtrate solution was collected for analysis.

[6] = Pharmacokinetics of paeoniflorin in normal SD rats (plasma, LC-MS/MS); format: in vivo, rat; conditions: for MRT last: read-out: MRT (0-t); for MRT inf: read-out: MRT (0-∞); for half-life: read-out: t1/2z (converted)
Description: Chromatography separation was performed using an XSS T3 column (3.5 μm, 2.1 mm × 100 mm, Waters, Milford, MA, United States) with the column temperature maintained at 40°C at a flow rate of 0.4 mL/min. […] The gradient was as follows: 25% eluent B for 2 min; 25–85% B from 2 to 4 min; 85–25% B from 4 to 5 min and held at 25% from 5 to 7 min. The autosampler temperature was set to 4°C. Mass spectrometry was carried out using multiple reaction monitoring mode (MRM). […] The nebulizing gas flow rate was 2.8 L/min, the drying gas flow rate was 10 L/min, and the heating gas flow rate was 10 L/min. […] Plasma samples were immediately stored at 4°C until analysis. The method validation assays were carried out in terms of specificity, linearity, sensitivity, accuracy, precisions, recovery, matrix effect and stability. […] Statistical analyses were conducted using two-way ANOVA and Student’s t-test with GraphPad Prism Version 5 (GraphPad Software, La Jolla, CA, United States). The data are expressed as the means ± standard deviation. […] DAS 3.0 was used to calculate the plasma pharmacokinetic parameters.

[7] = PGF rats (antibiotic pretreated)
[8] = normal rats, oral paeoniflorin 20 mg/kg, excreted form = labelled substance, n = 6
[9] = SD, rat, plasma, intravenous 2 mg/kg, normal rats, n = 5
[10] = SD, rat, plasma, normal rats, oral 20 mg/kg, n = 6
[11] = SD, rat, normal rats, oral paeoniflorin 20 mg/kg, plasma analyte = labelled substance, n = 6
[12] = normal rats, oral 20 mg/kg, n = 6
[13] = normal rats, oral paeoniflorin 20 mg/kg, plasma analyte = labelled substance, n = 6

## C[C@@]12C[C@@]3(O)O[C@@H](O1)[C@]1(COC(=O)c4ccccc4)[C@H]3C[C@@]12O[C@@H]1O[C@H](CO)[C@@H](O)[C@H](O)[C@H]1O [Paeoniflorin]
[1]; PGF rats (antibiotic pretreated), read-out: AUC (0-t)
  AUC(0-t): 296 ± 100 ng·h/mL
[1]; PGF rats (antibiotic pretreated), read-out: Cmax
  Cmax: 134 ± 48.5 ng/mL
[1]; PGF rats, Figures 3B, 3C, read-out: AUC(0-t) (unit inferred)
  AUC(0-t): 296 ng·h/mL
[1]; PGF rats, Figures 3B, 3C, read-out: Cmax (unit inferred)
  Cmax: 134 ng/mL
[1]; [7]
  AUC(0-inf): 312 ± 123 ng·h/mL
  Tmax: 0.388 ± 0.136 h
[1]; PGF rats (antibiotic pretreated), read-out: t1/2z (converted)
  half-life: 2.58 ± 1.61 h
[2]; [8]
  96-h cumulative excretion in feces: 0.016%
  96-h cumulative excretion in urine: 1.66%
[2]; time row 0–6 h
  Excretion rate of paeoniflorin (%), Urine (%), cumulative: 0.6821 ± 0.3209%
[2]; time row 6–12 h
  Excretion rate of paeoniflorin (%), Feces (%), cumulative: 0.0890 ± 0.0568%
  Excretion rate of paeoniflorin (%), Urine (%), cumulative: 1.2565 ± 0.9639%
[2]; time row 12–24 h
  Excretion rate of paeoniflorin (%), Feces (%), cumulative: 0.1247 ± 0.0763%
  Excretion rate of paeoniflorin (%), Urine (%), cumulative: 11.4988 ± 6.4969%
[2]; time row 24–48 h
  Excretion rate of paeoniflorin (%), Feces (%), cumulative: 0.1479 ± 0.0932%
  Excretion rate of paeoniflorin (%), Urine (%), cumulative: 28.6890 ± 13.81%
[2]; time row 48–72 h
  Excretion rate of paeoniflorin (%), Feces (%), cumulative: 0.1630 ± 0.0948%
  Excretion rate of paeoniflorin (%), Urine (%), cumulative: 42.8196 ± 19.2297%
[2]; time row 72–96 h
  Excretion rate of paeoniflorin (%), Feces (%), cumulative: 0.1805 ± 0.1055%
  Excretion rate of paeoniflorin (%), Urine (%), cumulative: 43.7953 ± 19.5441%
[3]
  abundance of Facklamia, Jeotgalicoccus, Ruminiclostridium_5 and Eubacterium_coprostanoligenes_group in feces: decreased
  abundance of Lactobacillus, Lachnospira, Eubacterium_ruminantium_group and Roseburia in feces: increased
[4]; 10 mg/kg
  sucrose preference value: higher than that in the model group
[4]; 20 mg/kg
  sucrose preference value: higher than that in the model group
[5]; 37°C, anaerobic, 1 mg/mL paeoniflorin, normal gut bacteria
  transformation of paeoniflorin in intestinal bacteria: completely transformed
[5]; inactivated bacteria solution
  metabolism of paeoniflorin in inactivated gut bacteria (control group): not metabolized
[6]; SD, rat, plasma, iv, 2 mg/kg, intravenous 2 mg/kg, normal rats, n = 5, read-out: AUC (0-t)
  AUC(0-t): 1060 ± 326 ng·h/mL
[6]; SD, rat, plasma, oral, rats, oral 20 mg/kg vs intravenous 2 mg/kg, F = AUCT·Div/AUCiv·DT × 100%, read-out: absolute (oral) bioavailability
  bioavailability: 2.32%
[6]; SD, rat, plasma, po, 20 mg/kg, normal rats, oral paeoniflorin 20 mg/kg, plasma analyte = labelled substance, Figures 2C, 3B, 3C, read-out: AUC(0-t) (unit inferred)
  AUC(0-t): 245 ng·h/mL
[6]; SD, rat, plasma, po, 20 mg/kg, normal rats, oral paeoniflorin 20 mg/kg, plasma analyte = labelled substance, Figures 2C, 3B, 3C, read-out: Cmax (unit inferred)
  Cmax: 119 ng/mL
[6]; SD, rat, plasma, po, 20 mg/kg, normal rats, oral paeoniflorin 20 mg/kg, plasma analyte = labelled substance, n = 6, read-out: AUC (0-t)
  AUC(0-t): 245 ± 72.8 ng·h/mL
[6]; SD, rat, plasma, po, 20 mg/kg, normal rats, oral paeoniflorin 20 mg/kg, plasma analyte = labelled substance, n = 6, read-out: Cmax
  Cmax: 119 ± 54.3 ng/mL
[6]; [9]
  AUC(0-inf): 1070 ± 325 ng·h/mL
  MRT last: 0.903 ± 0.122 h
  MRT inf: 0.981 ± 0.07 h
  half-life: 2.06 ± 0.771 h
[6]; SD, rat, plasma, intravenous 2 mg/kg, normal rats, n = 5, read-out: CLz (converted)
  clearance: 33.3 mL/min/kg
[6]; SD, rat, plasma, intravenous 2 mg/kg, normal rats, n = 5, read-out: Vz
  Vd: 6.09 ± 3.11 L/kg
[6]; [10]
  MRT last: 2 ± 0.353 h
  MRT inf: 2.04 ± 0.368 h
[6]; [11]
  AUC(0-inf): 246 ± 72.8 ng·h/mL
  Tmax: 0.458 ± 0.195 h
  half-life: 1.3 ± 0.474 h
[6]; [12]
  CLz: 1473 ± 483.58 mL/min/kg
  Vz: 161.261 ± 82.928 L/kg
[6]; [13]
  AUC(0-t): 245.29 ± 72.811 ng·h/mL
  Cmax: 119.36 ± 54.3 ng/mL
[6]; rats, oral 20 mg/kg vs intravenous 2 mg/kg, F = AUCT·Div/AUCiv·DT × 100%
  absolute (oral) bioavailability: 2.3%

Reference: PMC6435784, “Gut Microbiota-Based Pharmacokinetics and the Antidepressant Mechanism of Paeoniflorin” (Frontiers in Pharmacology, 2019)
